Results: patent publication US4124726A, “Anti-inflammatory agent of benzoyl derivative” (priority 1976, dated 1978)

Assays:
carragheenin edema = assay: acute carragheenin edema inhibition (anti-inflammatory effect); type: in vivo, male rats; conditions: for Anti-inf. (edema inhibition rate) / ED50: Table 2; for ED50: oral, read-out: 50% inhibition rate ED50
Description: The edema was induced by subcutaneous injection of 1% carraheenin suspension in saline to the hind paws of male rats weighing 150 to 180 g. Each sample was orally given at the dosage of 100 mg/kg just before the inoculation of carragheenin.

platelet aggregation = assay: blood platelet aggregation inhibition, collagen as inducer; type: cell-based; conditions: 10^-4 mole, rabbit PRP
Description: Blood platelet aggregation inhibiting effect
Male rabbits (Japan original white strain 3.3 to 3.6 kg) were anesthetized with Thiopental sodium and blood was sampled from the carotid artery.

in vivo = conditions: mouse, po
Description: Each sample was dissolved in olive oil or dispersed in 1% Tween 20 aqueous solution.

[1] = tested on: painful stretchings induced by acetic acid; assay: acetic acid induced stretching (analgesic effect); conditions: 100 mg/kg oral, 0.7% acetic acid i.p., mice
Description: Each sample was orally administrated in the dosage of 100 mg/kg before injection of acetic acid.

[2] = 100 mg/kg oral, carragheenin edema, rats
[3] = Rattus norvegicus, carragheenin edema, rats

Compound | Anti-inf. (edema inhibition rate) (carragheenin edema; [2]) | Blood platelet agg. inh. (percentage inhibition of platelet aggregation) (platelet aggregation) | LD50 at 72 h (in vivo) | Analgesic (percentage diminution of times of painful stretchings) [1] | ED50 (carragheenin edema; [3]) | anti-inflammatory effect, inhibition rate (ED50), in words (carragheenin edema) | inhibition in vivo at 100 mg/kg (carragheenin edema; Rattus norvegicus, Table 2', 100 mg/kg oral, carragheenin edema, rats, read-out: Anti-inf.) | Anti-inf. (carragheenin edema; Table 2', 100 mg/kg oral, carragheenin edema, rats)
CCCCCCCc1ccc(C(=O)c2ccc(C)cc2)cc1 [compound 85] | 18.7% | 18.7% | – | – | – | – | – | –
CCCCCc1ccc(C(=O)c2ccc(O)cc2)cc1 [compound 105] | – | 24.1% | 4000 mg/kg | 14.1% | – | – | – | –
CCCCc1ccc(C(=O)C(=O)c2ccccc2)cc1 [compound 29] | – | 11.1% | 10000 mg/kg | 2.7% | 130 mg/kg | – | – | –
CCc1ccc(C(=O)c2ccc(OC)cc2)cc1 [compound 107] | 20.3% | 20.3% | – | – | – | – | – | –
O=C(c1ccccc1)c1ccccc1F [compound 15] | – | 23.2% | 4000 mg/kg | 18.5% | 65 mg/kg | – | – | –
CCCc1ccc(C(=O)c2ccccc2F)cc1 [compound 7] | – | 23.0% | 1500 mg/kg | 15.0% | 78 mg/kg | – | – | –
CCCCCc1ccc(C(=O)c2ccccc2F)cc1 [compound 9] | – | 14.6% | 3000 mg/kg | 15.3% | 22 mg/kg | – | – | –
CCCCCc1ccc(C(=O)c2ccc(CCC)cc2)cc1 [compound 99] | – | 29.5% | 5000 mg/kg | 15.5% | – | – | – | –
CC(C)Cc1ccc(C(=O)c2ccccc2)cc1 [compound 67] | – | 18.5% | 2000 mg/kg | 19.1% | – | – | – | –
CCCCCCc1ccc(C(=O)c2c(C)cc(C)cc2C)cc1 [compound 103] | – | 29.5% | 500 mg/kg | 14.2% | – | – | – | –
Cc1cc(C)c(C(=O)c2ccccc2F)c(C)c1 [Active ingredient No. 11, 2-Fluoro-2',4',6'-trimethyl-benzophenone] | – | – | – | – | – | especially high inhibition rate | – | –
CCCCc1ccc(C(=O)c2ccc(CCC)cc2)cc1 [compound 98] | – | 28.3% | 4000 mg/kg | 16.4% | – | – | – | –
CCc1ccc(C(=O)c2ccccc2)cc1 [compound 66] | – | 20.7% | 2000 mg/kg | 15.7% | – | – | – | –
CCCCc1ccc(C(=O)c2ccccc2F)cc1 [Active ingredient No. 8, 4-n-butyl-2'-fluorobenzophenone] | – | – | – | – | – | especially high inhibition rate | – | –
Cc1cc(C)c(C(=O)c2ccc(Cl)cc2)c(C)c1 [compound 14] | – | 18.1% | 500 mg/kg | 19.2% | 130 mg/kg | – | – | –
O=C(c1ccccc1)c1ccccc1F [Active ingredient No. 15, 2-fluorobenzophenone] | – | – | – | – | – | especially high inhibition rate | – | –
O=C(c1ccccc1)c1ccccc1C(=O)c1ccccc1 [compound 113] | – | 25.8% | 4000 mg/kg | 14.5% | – | – | – | –
CCc1cc(CC)c(C(=O)c2ccccc2)c(CC)c1 [compound 13] | – | 14.3% | 2000 mg/kg | 15.8% | > 400 mg/kg | – | – | –
CCCCCCCc1ccc(C(=O)c2ccccc2)cc1 [compound 25] | – | 7.8% | 8000 mg/kg | 48.6% | – | – | – | –
CCCCCc1ccc(C(=O)c2ccc(OC)cc2)cc1 [compound 45] | – | 17.7% | 5000 mg/kg | 12.5% | > 400 mg/kg | – | – | –
CCCCc1ccc(C(=O)c2ccc(F)cc2C)cc1 [compound 46] | – | 16.5% | 2000 mg/kg | 13.4% | 400 mg/kg | – | – | –
CCCc1ccc(C(=O)c2ccc(O)cc2)cc1 [compound 104] | – | 25.3% | 3000 mg/kg | 13.2% | – | – | – | –
CCc1ccc(C(=O)c2ccc(C)cc2)cc1 [compound 33] | – | 20.5% | 3000 mg/kg | 15.5% | – | – | – | –

Compound | Anti-inf. (edema inhibition rate) (carragheenin edema; [2]) | Blood platelet agg. inh. (percentage inhibition of platelet aggregation) (platelet aggregation) | LD50 at 72 h (in vivo) | Analgesic (percentage diminution of times of painful stretchings) [1] | ED50 (carragheenin edema; [3]) | anti-inflammatory effect, inhibition rate (ED50), in words (carragheenin edema) | inhibition in vivo at 100 mg/kg (carragheenin edema; Rattus norvegicus, Table 2', 100 mg/kg oral, carragheenin edema, rats, read-out: Anti-inf.) | Anti-inf. (carragheenin edema; Table 2', 100 mg/kg oral, carragheenin edema, rats)
CCCCc1ccc(C(=O)c2ccc(OC)cc2)cc1 [compound 18] | – | 9.3% | 2000 mg/kg | 20.1% | – | – | – | –
Cc1ccc(C(=O)c2ccccc2F)c(C)c1 [compound 10] | – | 18.5% | 500 mg/kg | 20.3% | 90 mg/kg | – | – | –
CCCCc1ccc(C(=O)c2ccc(Cl)cc2)cc1 [compound 64] | – | 28.5% | 3000 mg/kg | 6.6% | – | – | – | –
CCCCOc1ccc(C(=O)c2ccccc2)cc1 [compound 42] | – | 4.4% | 3000 mg/kg | 26.8% | – | – | – | –
CCCCc1ccc(C(=O)c2ccccc2Cl)cc1 [compound 44] | – | 10.5% | 2000 mg/kg | 15.6% | 70 mg/kg | – | – | –
COc1ccc(C(=O)c2ccccc2)c(OC)c1 [compound 74] | – | 18.5% | 5000 mg/kg | 24.2% | – | – | – | –
CCCCCCc1ccc(C(=O)c2ccccc2)cc1 [compound 24] | – | 10.5% | 6000 mg/kg | 47.7% | – | – | – | –
CCCCCc1ccc(C(=O)c2cccc(C)c2)cc1 [compound 89] | – | 22.6% | 10000 mg/kg | 4.3% | – | – | – | –
CCCC(C)c1ccc(C(=O)c2ccccc2F)cc1 (centres unmarked) [compound 121] | – | – | 3000 mg/kg | – | – | – | 64.5% | –
CCCc1ccc(C(=O)Cc2ccccc2)cc1 [compound 49] | – | 28.5% | 8000 mg/kg | 18.2% | – | – | – | –
COc1cc(OC)c(C(=O)c2ccccc2)c(OC)c1 [compound 76] | – | 16.2% | 2500 mg/kg | 13.9% | – | – | – | –
Cc1cc(C)c(C(=O)c2ccccc2)c(C)c1C [compound 79] | – | 26.8% | 1000 mg/kg | 20.8% | – | – | – | –
O=C(c1ccc(F)cc1)c1ccc(F)cc1 [compound 114] | – | 26.8% | 2000 mg/kg | 18.3% | – | – | – | –
CCCCCc1ccc(C(=O)c2ccccc2)cc1 [compound 23] | – | 13.8% | 5000 mg/kg | 10.1% | – | – | – | –
CCCCCCCCc1ccc(C(=O)c2ccccc2)cc1 [compound 26] | – | 3.1% | 10000 mg/kg | 35.9% | – | – | – | –
CCCCc1ccc(C(=O)c2ccccc2)cc1 [Active ingredient No. 19, 4-n-butyl benzophenone] | – | – | – | – | – | especially high inhibition rate | – | –
CCCc1ccc(C(=O)c2ccc(C)cc2)cc1 [compound 34] | – | 16.4% | 5000 mg/kg | 12.1% | – | – | – | –
CCCCCc1ccc(C(=O)c2ccccc2F)cc1 [Active ingredient No. 9, 2-Fluoro-4'-n-amyl-benzophenone] | – | – | – | – | – | especially high inhibition rate | – | –
CCCCCCCCc1ccc(C(=O)c2cccc(I)c2)cc1 [compound 161] | – | – | 5000 mg/kg | – | – | – | – | 20.9
Cc1ccc(C(=O)c2ccccc2)c(C)c1C [compound 31] | – | 18.2% | 1500 mg/kg | 9.5% | – | – | – | –
Cc1ccc(C(=O)c2ccccc2)cc1C [compound 72] | – | 28.7% | 1000 mg/kg | 23.4% | – | – | – | –
CCCCCc1ccc(C(=O)c2ccccc2C)cc1 [compound 41] | – | 14.4% | 3000 mg/kg | 14.6% | – | – | – | –
COc1ccc(OC)c(C(=O)c2ccccc2)c1 [compound 75] | – | 30.7% | 5000 mg/kg | 22.0% | – | – | – | –
